# Structures can show the parent of a compound that is named as a salt.
# What was measured:
# [1] = molecular target: T1, human VR1 receptors (Homo sapiens, UniProt Q8NER1); experiment: Human VR1 antagonist assay (Ca2+ imaging); type: cell-based; details: cells expressing human VR1, fura-2 Ca2+ imaging, FDSS 6000; capsaicin (300 nM) or acid (pH5.8) stimulation, table does not say which
# T1 construct: host or cells: cells highly expressing human VR1; cell type not specified
# Source text: Human VR1 Antagonist Assay
# VR1 antagonistic activity can be determined by the Ca^2+ imaging assay using human VR1 highly expressing cells. The cells that highly express human VR1 receptors are obtainable from several different conventional methods. The one standard method is cloning from human Dorsal Root Ganglion (DRG) or kidney according to the methods such as described in the journal article; Nature, 389, pp 816-824, 1997. Alternatively VR1 receptors highly expressing human keratinocytes are also known and published in the journal article (Biochemical and Biophysical Research Communications, 291, pp 124-129, 2002). […] Further more, the method to up regulate human VR1 gene, which is usually a silent gene or don't produce detectable level of VR1 receptors, is also available to obtain propriety cells. Such genetic modification method was described in detail; Nat. Biotechnol., 19, pp 440-445, 2001.
# The cells that express human VR1 receptors were maintained in culture flask at 37° C. in an environment containing 5% CO2 until use in the assay. The intracellular Ca^2+ imaging assay to determine VR1 antagonistic activities were done by following procedures.
# The culture medium was removed from the flask and fura-2/AM fluorescent calcium indicator was added to the flask at a concentration of 5 μM in the medium. The flask was placed in CO2 incubator and incubated for 1 hour. Then the cells expressing the human VR1 receptors were detached from the flask follow by washing with phosphate buffer saline, PBS(−) and re-suspended in assay buffer. The 80 μl of aliquot of cell suspension (3.75×10^5 cells/ml) was added to the assay plate and the cells were spun down by centrifuge (950 rpm, 20° C., 3 minutes).
# Capsaicin Stimulation Assay:
# The capsaicin-induced changes in the intracellular calcium concentration were monitored using FDSS 6000 (Hamamatsu Photonics, Japan), a fluorometric imaging system. The cell suspension in Krebs-Ringer HEPES (KRH) buffer (115 mM NaCl, 5.4 mM KCl, 1 mM MgSO4, 1.8 mM CaCl2, 11 mM D-Glucose, 25 mM HEPES, 0.96 mM Na2HPO4, pH 7.3) were pre-incubated with varying concentrations of the test compounds or KRH buffer (buffer control) for 15 minutes at room temperature under the dark condition. Then capsaicin solution, which gives 300 nM in assay mixture, was automatically added to the assay plate by the FDSS 6000.
# The Acid-induced changes in the intracellular calcium concentration were monitored using FDSS 6000 (Hamamatsu Photonics, Japan), a fluorometric imaging system. The cell suspension in resting buffer (HBSS supplemented with 10 mM HEPES, pH 7.4) were pre-incubated with varying concentrations of the test compounds or resting buffer (buffer control) for 15 minutes at room temperature under the dark condition. The cells were automatically added the stimulating solution (HBSS supplemented with MES, final assay buffer pH5.8) by the FDSS 6000.
# Determination of Antagonist Activity
# The monitoring of the changes in the fluorescence signals (λex=340 nm/380 nm, λem=510-520 nm) was initiated at 1 minute prior to the addition of capsaicin solution or acidic buffer and continued for 5 minute.
# [2] = Half-life in Human Liver Microsomes (HLM); details: pH 7.4; for half-life at 1 μM: human, human liver microsomes (HL101)
# Experimental: Test compounds (1 μM) were incubated with 3.3 mM MgCl2 and 0.78 mg/mL HLM (HL101) in 100 mM potassium phosphate buffer (pH 7.4) at 37° C. on the 96-deep well plate. The reaction mixture was split into two groups, a non-P450 and a P450 group. NADPH was only added to the reaction mixture of the P450 group. An aliquot of samples of P450 group was collected at 0, 10, 30, and 60 min time point, where 0 min time point indicated the time when NADPH was added into the reaction mixture of P450 group. An aliquot of samples of non-P450 group was collected at −10 and 65 min time point. Collected aliquots were extracted with acetonitrile solution containing an internal standard. The precipitated protein was spun down in centrifuge (2000 rpm, 15 min). The compound concentration in supernatant was measured by LC/MS/MS system.
# The half-life value was obtained by plotting the natural logarithm of the peak area ratio of compounds/internal standard versus time. The slope of the line of best fit through the points yields the rate of metabolism (k).
# T1 sequence (Q8NER1 whole entry): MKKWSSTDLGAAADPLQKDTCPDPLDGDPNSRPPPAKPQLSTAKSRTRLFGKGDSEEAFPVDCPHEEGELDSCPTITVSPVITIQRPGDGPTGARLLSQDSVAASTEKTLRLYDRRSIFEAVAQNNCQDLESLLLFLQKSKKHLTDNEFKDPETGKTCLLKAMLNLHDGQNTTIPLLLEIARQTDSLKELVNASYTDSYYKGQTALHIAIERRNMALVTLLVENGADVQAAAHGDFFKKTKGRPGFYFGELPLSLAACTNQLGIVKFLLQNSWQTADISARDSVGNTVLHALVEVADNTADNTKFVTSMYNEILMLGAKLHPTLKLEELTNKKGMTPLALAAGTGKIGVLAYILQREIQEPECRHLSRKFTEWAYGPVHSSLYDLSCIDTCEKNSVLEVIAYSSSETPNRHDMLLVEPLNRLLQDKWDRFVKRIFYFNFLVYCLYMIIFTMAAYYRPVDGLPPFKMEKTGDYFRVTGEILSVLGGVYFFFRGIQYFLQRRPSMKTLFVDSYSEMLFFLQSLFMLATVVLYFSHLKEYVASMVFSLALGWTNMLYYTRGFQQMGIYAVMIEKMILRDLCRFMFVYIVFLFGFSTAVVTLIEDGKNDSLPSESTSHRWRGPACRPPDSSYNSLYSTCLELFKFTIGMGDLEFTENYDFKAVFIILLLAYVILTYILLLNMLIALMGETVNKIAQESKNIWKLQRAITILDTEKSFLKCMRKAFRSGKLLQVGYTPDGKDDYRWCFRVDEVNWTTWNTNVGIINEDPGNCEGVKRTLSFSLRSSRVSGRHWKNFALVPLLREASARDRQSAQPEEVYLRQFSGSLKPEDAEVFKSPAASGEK
Structure (SMILES),IC50 [1] [nM],half-life at 1 μM [2] [min],"T1/2 ([2]; 1 μM compound, 0.78 mg/mL HLM, 37° C., NADPH) [min]"
"Cc1cc([C@@H](C)NC(=O)C2CC2c2cc(F)c(C(C)(C)C(F)(F)F)c(F)c2)ccc1NS(C)(=O)=O (single isomer, unassigned) [Example 30]",138,32,–
"Cc1nc([C@@H](C)NC(=O)C2CC2c2ccc(C(C)(C)C)cc2)ccc1NS(C)(=O)=O (single isomer, unassigned) [Example 55]",297,42,–
"Cc1nc([C@@H](C)NC(=O)C2CC2c2ccc(C(F)(F)F)cc2)ccc1NS(C)(=O)=O (single isomer, unassigned) [Example 56]",1250,> 120,–
"Oc1cc2c(cc1O)CN(C(=S)NCCc1ccc(Cl)cc1)CCC2 [Capsazepine, reference compound]",237 to 455,–,–
"Cc1cc([C@@H](C)NC(=O)C2CC2(C)c2ccc(C(C)(C)O)cc2)ccc1NS(C)(=O)=O (stereo partly drawn) [Example 3, 2-[4-(1-Hydroxy-1-methylethyl)phenyl]-2-methyl-N-((1R)-1-{3-methyl-4-[(methylsulfonyl)amino]phenyl}ethyl)cyclopropanecarboxamide]",885,–,–
"Cc1cc([C@@H](C)NC(=O)C2CC2(C)c2ccc(C(C)(C)C)nc2)ccc1NS(C)(=O)=O (stereo partly drawn) [Example 11, 2-(6-tert-Butylpyridin-3-yl)-2-methyl-N-((1R)-1-{3-methyl-4-[(methylsulfonyl)amino]phenyl}ethyl)cyclopropanecarboxamide monohydrochloride]",–,–,22
"CCc1nc([C@@H](C)NC(=O)C2C[C@]2(C)c2ccc(C(C)(C)C(F)(F)F)cc2)ccc1NS(C)(=O)=O (stereo partly drawn) [Example 35, N-((1R)-1-{6-Ethyl-5-[(methylsulfonyl)amino]pyridin-2-yl}ethyl)-2-methyl-2-[4-(2,2,2-trifluoro-1,1-dimethylethyl)phenyl]cyclopropanecarboxamide]",–,25,–
"CCc1nc([C@@H](C)NC(=O)[C@H]2C[C@]2(C)c2ccc(C(C)(C)C(F)(F)F)cc2)ccc1NS(C)(=O)=O [Example 35, N-((1R)-1-{6-Ethyl-5-[(methylsulfonyl)amino]pyridin-2-yl}ethyl)-2-methyl-2-[4-(2,2,2-trifluoro-1,1-dimethylethyl)phenyl]cyclopropanecarboxamide]",156,–,–
"C[C@@H](NC(=O)C1C[C@@H]1c1ccc(C(C)(C)C)c(F)c1)c1ccc(NS(C)(=O)=O)c(CO)c1 (stereo partly drawn) [Example 36, 2-[4-tert-Butyl-3-fluorophenyl]-N-((1R)-1-{3-(hydroxymethyl)-4-[(methylsulfonyl)amino]phenyl}ethyl)cyclopropanecarboxamide]",–,23,–
"C[C@@H](NC(=O)C1CC1c1ccc(C(C)(C)C)nc1)c1ccc(NS(C)(=O)=O)c(F)c1 (stereo partly drawn) [Example 52, 2-[6-tert-Butylpyridin-3-yl]-N-((1R)-1-{3-fluoro-4-[(methylsulfonyl)amino]phenyl}ethyl)cyclopropanecarboxamide]",1150,–,–
"Cc1cc([C@@H](C)NC(=O)C2CC2c2ccc(C(C)(C)C)cc2-c2ccncc2)ccc1NS(C)(=O)=O (stereo partly drawn) [Example 65, 2-[4-tert-Butyl-2-pyridin-4-ylphenyl]-N-((1R)-1-{3-methyl-4-[(methylsulfonyl)amino]phenyl}ethyl)cyclopropanecarboxamide]",1040,–,–
"COCC(C)(C)c1ccc(C2(C)CC2C(=O)N[C@H](C)c2ccc(NS(C)(=O)=O)c(C)c2)cc1F (stereo partly drawn) [Example 85, 2-{4-[1,1-Dimethyl-2-(methyloxy)ethyl]-3-fluorophenyl}-2-methyl-N-((1R)-1-{3-methyl-4-[(methylsulfonyl)amino]phenyl}ethyl)cyclopropanecarboxamide]",52.7,–,–
"CC[C@@H](NC(=O)[C@H]1C[C@]1(C)c1cc(F)c(C(C)(C)C)c(F)c1)c1ccc(NS(C)(=O)=O)cc1 [Example 90, 2-(4-tert-Butyl-3,5-difluorophenyl)-2-methyl-N-((1R)-1-{4-[(methylsulfonyl)amino]phenyl}propyl)cyclopropanecarboxamide]",86.3,–,–

# Results, then the compound that gave them:
IC50 [1] [nM],half-life at 1 μM [2] [min],"T1/2 ([2]; 1 μM compound, 0.78 mg/mL HLM, 37° C., NADPH) [min]",Structure (SMILES)
17.9,19,–,"CCc1cc([C@@H](C)NC(=O)C2CC2(C)c2ccc(OC(F)(F)F)cc2)ccc1NS(C)(=O)=O (mixture of isomers) [Example 29, N-((1R)-1-{3-Ethyl-4-[(methylsulfonyl)amino]phenyl}ethyl)-2-methyl-2-{4-[(trifluoromethyl)oxy]phenyl}cyclopropanecarboxamide]"
12.3,61,–,"Cc1cc([C@@H](C)NC(=O)C2CC2(C)c2ccc(OC(F)(F)F)cc2)ccc1NS(C)(=O)=O (single isomer, unassigned) [Example 28]"
30.5,91,–,"Cc1cc([C@@H](C)NC(=O)C2CC2(C)c2ccc(C(F)(F)F)nc2)ccc1NS(C)(=O)=O (single isomer, unassigned) [Example 57]"
0.48,15.8,–,"Cc1cc([C@@H](C)NC(=O)C2CC2(C)c2cc(F)c(C(C)(C)C(F)(F)F)c(F)c2)ccc1NS(C)(=O)=O (single isomer, unassigned) [Example 71]"
8.5,52.6,–,"CCc1cc([C@@H](C)NC(=O)C2CC2(C)c2cc(F)c(C(C)(C)C(F)(F)F)c(F)c2)ccc1NS(C)(=O)=O (single isomer, unassigned) [Example 72]"
11.8,10,–,"CCc1cc([C@@H](C)NC(=O)C2CC2(C)c2ccc(OC(F)(F)F)cc2)ccc1NS(C)(=O)=O (single isomer, unassigned) [Example 75]"
19,–,–,"C[C@@H](NC(=O)[C@H]1C[C@@H]1c1ccc(C(C)(C)C)c(F)c1)c1ccc(NS(C)(=O)=O)c(CO)c1 [Example 36, 2-[4-tert-Butyl-3-fluorophenyl]-N-((1R)-1-{3-(hydroxymethyl)-4-[(methylsulfonyl)amino]phenyl}ethyl)cyclopropanecarboxamide]"
< 3,–,–,"Cc1cc([C@@H](C)NC(=O)C2CC2(C)c2cc(F)c(C(C)(C)C)c(F)c2)c(F)cc1NS(C)(=O)=O (stereo partly drawn) [Example 78, 2-(4-tert-Butyl-3,5-difluorophenyl)-N-((1R)-1-{2-fluoro-5-methyl-4-[(methylsulfonyl)amino]phenyl}ethyl)-2-methylcyclopropanecarboxamide]"
4.8,–,–,"C[C@@H](NC(=O)[C@H]1C[C@]1(C)c1ccc(C(F)(F)F)cc1)c1ccc(NS(C)(=O)=O)c(CCO)c1 [Example 86, (1S,2S)-N-((1R)-1-{3-(2-Hydroxyethyl)-4-[(methylsulfonyl)amino]phenyl}ethyl)-2-methyl-2-[4-(trifluoromethyl)phenyl]cyclopropanecarboxamide]"
19.9,–,–,"CCc1cc([C@@H](CC)NC(=O)[C@H]2C[C@]2(C)c2ccc(C(F)(F)F)cc2)ccc1NS(C)(=O)=O [Example 87, (1S,2S)-N-((1R)-1-{3-ethyl-4-[(methylsulfonyl)amino]phenyl}propyl)-2-methyl-2-[4-(trifluoromethyl)phenyl]cyclopropanecarboxamide]"
< 3,–,–,"CCC1(c2ccc(C(F)(F)F)cc2)CC1C(=O)N[C@H](C)c1ccc(NS(C)(=O)=O)c(C)c1 (stereo partly drawn) [Example 88, 2-Ethyl-N-((1R)-1-{3-methyl-4-[(methylsulfonyl)amino]phenyl}ethyl)-2-[4-(trifluoromethyl)phenyl]cyclopropanecarboxamide]"
< 3,–,–,"CCC1(c2ccc(C(F)(F)F)cc2)CC1C(=O)N[C@H](C)c1ccc(NS(C)(=O)=O)c(F)c1 (stereo partly drawn) [Example 89, 2-Ethyl-N-((1R)-1-{3-fluoro-4-[(methylsulfonyl)amino]phenyl}ethyl)-2-[4-(trifluoromethyl)phenyl]cyclopropanecarboxamide]"
< 3,–,–,"CC[C@@H](NC(=O)[C@H]1C[C@]1(C)c1cc(F)c(C(C)(C)C)c(F)c1)c1ccc(NS(C)(=O)=O)c(C)c1 [Example 91, 2-(4-tert-butyl-3,5-difluorophenyl)-2-methyl-N-((1R)-1-{3-methyl-4-[(methylsulfonyl)amino]phenyl}propyl)cyclopropanecarboxamide]"
